Five compounds from patent publication US20230219961A1, “Pyridine acetamide derivative serving as CDK inhibitor, and preparation method therefor and use thereof” (Suzhou AlphaMa Biotechnology Co., Ltd., priority 2020, published 2023) can be followed below.

One test relates to RNA pol II Ser5. Kind of test: CDK7 signaling pathway in Mv4-11 cells: phosphorylation of RNA pol II Ser5 (SDS-PAGE/blot). It counts as cell-based. Particulars: 6 hours, FIG. 1. As to the method:
(§1) The inhibition effect of the compounds of the present disclosure on CDK7/CDK9 protein downstream RNA pol II Ser ⅖ in Mv4-11 cells in vitro was determined by the following method:
(§2) 1) Cell inoculation: Mv4-11 cells with good growing state in logarithmic growth phase were inoculated into a six-well plate with 2^∗10^5 cells/well, and cultured overnight at 37° C. and under 5% CO2 condition.
(§3) 2) Administration: The compound was diluted with 2 mL of 1640 medium containing 10% FBS and 1% PS. […] of the medium containing the compound was added to the overnight cultured cells, and it was placed in a 37° C., 5% CO2 cell incubator for 6 hours.
(§4) 3) Protein extraction and quantification: Cell suspension was collected and centrifuged at 1000 g for 5 min, the cell culturing medium was discarded, and PBS was added for resuspension and centrifugation; it was repeated three times, the residual liquid was sucked dry, 80 uL cell lysate was added per well, it was placed to ice, shaked for 10 min on a shaker and centrifuged at 12000 g for 5 min, and the supernatant, ie, the total protein solution, was collected; the protein concentration was tested by BCA.
(§5) 4) 12% SDS-PAGE electrophoresis was used to detect, after that trarsmembran was carried out at 100 V voltage for 3 h, blocking solution (Beyotime: P0235) was used to block for 15 min, TBST(Sangon Biotech: C520002) was used to wash the membrane three times, and the primary antibody (target protein CST:13499, internal reference Beyotime: AF1186) was incubated at 4° C. overnight; the membrane was washed with TBST three times; the secondary antibody (Beyotime: A0208) was incubated at room temperature for 1 hour; the membrane was washed with TBST three times; ECL (Tanon: 180-501) was used for exposure and coloration.

In a further test the target is T1, CDK7 (Homo sapiens, UniProt P50613).
T1 construct: purchased Eurofilns (sic; Eurofins) 14-476 M
Kind of test: Inhibitory effect on the kinase activity of CDK7 in vitro (Caliper). Particulars: 77 uM ATP, 0.2 ug/uL CTD3 peptide; read-out: CDK 7 IC50. It counts as biochemical. As to the method:
(§6) The detection of the inhibitory effect of the compounds of the present disclosure on the kinase activity of CDK7/CDK9 in vitro was determined by the following method:
(§7) 1) The compound was accurately weighed and dissolved in DMSO (Sigma, D2650) to a concentration of 100 mM for later use. The compound was diluted to 5-fold of a desired highest concentration, and diluted 4-fold into 6 concentration gradients, allowing the final concentration of the compound in the reaction system to be CDK7: 3000, 750, 188, 47, 12, 3 nM; CDK9: 100, 25, 6.25, 1.56, 0.39, 0.098 nM. 5 ul was taken to a 384-well plate (Corning, 4512).
(§8) 2) Kinase reaction: 10uL protein kinase (CDK7: Eurofilns,14-476 M; CDK9: Millipore,14-685 M) solution was added to the 384-well plate (Corning, 4512) containing the compound, and allowed to stand at room temperature for 10 min; a mixed solution of ATP(Sigma, A7699) and substrate polypeptide (CDK7: 77 uM ATP&0.2ug/uL CTD3 peptide (GL Biochem,SY356885); CDK9: 10 uM ATP&0.2 ug/uL CTD3 peptide (GL Biochem,SY356885)) was added, and allowed to stand at 28° C. for a short time; and then a stop solution was added to terminate the reaction at 25 uL per well.
(§9) 3) Detection: Data was collected by Caliper.
(§10) 4) Calculation: The IC50 value was calculated by Graphpad prism 5.0 software according to the concentration of the compound and the corresponding signal value.

A further test concerns Mv4-11 cells. Kind of test: Inhibition of the proliferation of Mv4-11 cells (CCK8). It counts as cell-based. Particulars: Homo sapiens, MV4-11, 48 h. As to the method:
The inhibition effect of the compounds of the present disclosure on the proliferation of Mv4-11 cells (ATCC:CRL-9591™) in vitro was determined by the following method:
1) Cell inoculation: Mv4-11 cells with good growing state in logarithmic growth phase were inoculated into a 96-well plate at 20000 cells per well and 50 uL, and cultured at 37° C. and under 5% CO2 condition for 2-4 h.
2) Administration: The compound was diluted with 1640 medium containing 10% FBS and 1% PS: 0.4 uL of the compound with an initial concentration of 1 mM was placed in a dilution plate, each added with 199.6 uL of the above culture medium, and gradiently diluted 4-fold, so that the final concentration in the added cell was 1000, 250, 62.5, 15.625, 3.91, 0.98, 0.24, 0.06 nM. 50 µL of the medium containing the compound was sequentially added, and it was placed in a 37° C., 5% CO2 cell incubator for 48 hours.
3) Detection: 10uL CCK8 (Dojindo, CK 04) solution was added to each well, incubated in 37° C. 5% CO2 cell incubator for 2 hours, and then the OD450 value was read by Synegry H1(BioTek) multimode microplate reader.
4) Calculation: The IC50 value was calculated using Graphpad prism 5.0 software according to the concentration of the compound and the corresponding signal value.

For another test, the target named is T2, CDK9 (Homo sapiens, UniProt P50750).
T2 construct: purchased Millipore 14-685 M
Kind of test: Inhibitory effect on the kinase activity of CDK9 in vitro (Caliper). It counts as biochemical. The note with it: 10 uM ATP, 0.2 ug/uL CTD3 peptide; read-out: CDK 9 IC50. The procedure: as §6, §7, §8, §9, §10

A further test deals with RNA pol II Ser2. Kind of test: CDK9 signaling pathway in Mv4-11 cells: phosphorylation of RNA pol II Ser2 (SDS-PAGE/blot). It counts as cell-based. Particulars: 6 hours, FIG. 1. As to the method: as §1, §2, §3, §4, §5

T1 sequence (P50613 whole entry): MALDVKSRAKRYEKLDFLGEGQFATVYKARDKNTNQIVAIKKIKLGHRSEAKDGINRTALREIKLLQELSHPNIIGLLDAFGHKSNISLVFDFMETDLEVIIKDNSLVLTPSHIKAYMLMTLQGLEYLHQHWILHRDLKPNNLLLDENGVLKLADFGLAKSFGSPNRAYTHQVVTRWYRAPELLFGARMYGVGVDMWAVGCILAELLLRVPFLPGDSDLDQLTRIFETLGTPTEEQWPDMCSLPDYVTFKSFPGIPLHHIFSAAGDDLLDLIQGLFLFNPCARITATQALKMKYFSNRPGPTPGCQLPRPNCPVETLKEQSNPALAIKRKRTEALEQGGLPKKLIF
T1 sequence (P51946 whole entry partner): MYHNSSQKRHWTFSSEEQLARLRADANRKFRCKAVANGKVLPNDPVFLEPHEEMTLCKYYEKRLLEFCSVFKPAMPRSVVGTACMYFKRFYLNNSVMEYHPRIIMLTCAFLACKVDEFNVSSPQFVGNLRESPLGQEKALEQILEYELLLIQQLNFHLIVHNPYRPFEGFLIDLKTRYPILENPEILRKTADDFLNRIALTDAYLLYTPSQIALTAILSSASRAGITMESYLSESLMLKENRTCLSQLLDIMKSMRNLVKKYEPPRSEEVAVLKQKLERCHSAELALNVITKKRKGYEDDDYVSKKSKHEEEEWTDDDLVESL
T1 sequence (P51948 whole entry partner): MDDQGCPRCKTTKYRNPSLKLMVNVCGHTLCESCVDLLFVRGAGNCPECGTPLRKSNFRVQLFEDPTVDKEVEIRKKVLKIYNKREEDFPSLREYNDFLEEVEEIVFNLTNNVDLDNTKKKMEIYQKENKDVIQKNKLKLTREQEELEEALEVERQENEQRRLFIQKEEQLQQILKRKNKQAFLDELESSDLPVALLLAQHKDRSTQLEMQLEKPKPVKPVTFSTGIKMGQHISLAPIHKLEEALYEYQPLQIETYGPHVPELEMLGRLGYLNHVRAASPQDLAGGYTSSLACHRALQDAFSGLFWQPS
T2 sequence (P50750 whole entry): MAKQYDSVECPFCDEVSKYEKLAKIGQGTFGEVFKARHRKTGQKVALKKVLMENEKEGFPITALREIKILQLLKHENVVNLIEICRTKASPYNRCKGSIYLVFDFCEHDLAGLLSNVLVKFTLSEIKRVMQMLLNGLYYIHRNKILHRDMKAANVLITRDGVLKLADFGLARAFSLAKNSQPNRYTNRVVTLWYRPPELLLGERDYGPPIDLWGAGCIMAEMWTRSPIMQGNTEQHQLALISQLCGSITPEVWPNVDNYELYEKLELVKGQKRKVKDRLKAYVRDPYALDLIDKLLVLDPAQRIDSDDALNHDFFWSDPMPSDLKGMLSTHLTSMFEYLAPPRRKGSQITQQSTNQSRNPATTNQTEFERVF
T2 sequence (O60563 whole entry partner): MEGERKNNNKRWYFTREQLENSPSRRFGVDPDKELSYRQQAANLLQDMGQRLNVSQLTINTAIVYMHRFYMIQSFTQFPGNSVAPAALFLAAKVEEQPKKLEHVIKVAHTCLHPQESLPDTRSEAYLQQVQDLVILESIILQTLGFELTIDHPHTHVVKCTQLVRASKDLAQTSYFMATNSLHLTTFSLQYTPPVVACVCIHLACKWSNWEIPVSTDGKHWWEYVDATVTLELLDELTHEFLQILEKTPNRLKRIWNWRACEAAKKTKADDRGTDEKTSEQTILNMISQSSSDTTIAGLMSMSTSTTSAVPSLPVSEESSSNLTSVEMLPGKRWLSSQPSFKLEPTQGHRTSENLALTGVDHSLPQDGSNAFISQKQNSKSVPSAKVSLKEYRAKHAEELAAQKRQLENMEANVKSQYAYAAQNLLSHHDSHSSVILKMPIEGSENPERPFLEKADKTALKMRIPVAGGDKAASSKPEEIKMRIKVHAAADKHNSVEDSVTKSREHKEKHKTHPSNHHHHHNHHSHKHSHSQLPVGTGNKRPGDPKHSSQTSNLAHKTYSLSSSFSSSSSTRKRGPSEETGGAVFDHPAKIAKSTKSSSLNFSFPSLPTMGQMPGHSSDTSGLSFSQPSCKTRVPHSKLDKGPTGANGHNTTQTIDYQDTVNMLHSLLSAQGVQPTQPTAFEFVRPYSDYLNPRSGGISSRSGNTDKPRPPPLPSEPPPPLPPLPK

Turning to `C[C@@H](C(=O)Nc1cc(-c2cnn3c2CC(C)(C)C3)c(Cl)cn1)c1cccc(C(N)=O)c1` [Compound 2-2, (R)-3-(1-((5-chloro-4-(5,5-dimethyl-5,6-di hydro-4H-pyrrolo[1,2-b]pyrazol-3-yl)pyridin-2-yl)amino)-1-oxopropan-2-yl)benzamide (assumed)], the “inhibitory effect on the phosphorylation of the CDK7 protein downstream RNA pol II Ser5” value in the test on RNA pol II Ser5 is on record as “significant inhibitory effect”. Moreover, the IC50 at CDK7 stood at 19 nM; with Mv4-11 cells it was 1.6 nM; at CDK9, 2.7 nM. Also, the “inhibitory effect on the phosphorylation of CDK9 protein downstream RNA pol II Ser2” value in the test with RNA pol II Ser2 is recorded as “significant inhibitory effect”.

On to `CNC(=O)c1cccc(CC(=O)Nc2cc(-c3cnn4c3CC(C)(C)C4)c(Cl)cn2)c1` [Compound 3, 3-(2-((5-chloro-4-(5,5-dimethyl-5,6-dihydro-4H-pyrrolo[1,2-b]pyrazol-3-yl)pyridin-2-yl)amino)-2-oxoethyl)-N-methylbenzamide], for which, in the test with RNA pol II Ser5, the “inhibitory effect on the phosphorylation of the CDK7 protein downstream RNA pol II Ser5” value is listed as “significant inhibitory effect”. For the same compound, the IC50 at CDK7 turned out to be 103 nM; in the test with Mv4-11 cells it was 3.9 nM; at CDK9, 4 nM.

With `C[C@@H](C(=O)Nc1cc(-c2cnn3c2CC(C)(C)C3)c(Cl)cn1)c1cccnc1` [Compound 11-2, (R)-N-(5-chloro-4-(5,5-dimethyl-5,6-dihydro-4H-pyrrolo[1,2-b]pyrazol-3-yl)pyridin-2-yl)-2-(pyridin-3-yl)propionamide (assumed)], the “inhibitory effect on the phosphorylation of the CDK7 protein downstream RNA pol II Ser5” value in the test on RNA pol II Ser5 is “significant inhibitory effect”. In addition, the results for the half-inhibitory concentration (IC50) in the test with Mv4-11 cells and at CDK9 were 13 nM and 2.9 nM, respectively. For the same compound, the “inhibitory effect on the phosphorylation of CDK9 protein downstream RNA pol II Ser2” value in the test with RNA pol II Ser2 is “significant inhibitory effect”.

Regarding `C[C@H](C(=O)Nc1cc(-c2cnn3c2CC(C)(C)C3)c(Cl)cn1)c1cccc(C#N)n1` [Compound 13-1, (S)-N-(5-chloro-4-(5,5-dimethyl-5,6-dihydro-4H-pyrrolo[1,2-b]pyrazol-3-yl)pyridin-2-yl)-2-(6-cyanopyridin-2-yl)propionamide (assumed)], the figures for the IC50 with Mv4-11 cells and on CDK9 were 148 nM and 44.4 nM, respectively. Further, the “inhibitory effect on the phosphorylation of CDK9 protein downstream RNA pol II Ser2” value in the test with RNA pol II Ser2 is recorded as “significant inhibitory effect”.

Regarding `C[C@@H](C(=O)Nc1cc(-c2cnn3c2CC(C)(C)C3)c(Cl)cn1)c1cccc(C#N)n1` [Compound 13-2, (R)-N-(5-chloro-4-(5,5-dimethyl-5,6-dihydro-4H-pyrrolo[1,2-b]pyrazol-3-yl)pyridin-2-yl)-2-(6-cyanopyridin-2-yl)propionamide (assumed)], the “inhibitory effect on the phosphorylation of the CDK7 protein downstream RNA pol II Ser5” value in the test with RNA pol II Ser5 was “significant inhibitory effect”. The IC50 at CDK7 amounted to 328 nM; in the test with Mv4-11 cells it was 4.8 nM; on CDK9, 3 nM.
